Results as given in US9243281B2, “Neuroprotective chemicals and methods for identifying and using same” (Board of Regents of The University of Texas System, priority 2013, dated 2016).

Columns and labels:
[1] = test system: U2OS cells; assay: doxorubicin toxicity (dox:tox) protection assay, Cell Titer Glo cell survival; assay type: cell-based; details: cultured U2OS cells
Text: FIGS. 2A-2D. […] (FIG. 2A) Chemical structure of P7C3-S326. […] (FIG. 2C) Formulas used for calculating doxorubicin toxicity (dox:tox) protection activity. Protection activity is expressed by (Sinf−S0)/AC50 in the twelve-point dose response curve (DRC) corresponding to each compound, wherein both efficacy and potency of compounds were considered. Sinf represents the expected maximal protection. S0 is the baseline. […] In the photo-crosslinking assays, the p70 band intensity was quantified by Image J, and compared the sample of P7C3-S326 alone with that of P7C3-S326 plus competitor. Pearson correlation coefficient (r) and two tailed P value were determined by GraphPad Prism 6 and Spearman Rank Correlation (v1.0.1) software.
FIG. 10. Twelve-point dose response curves (DRC) of all tested compounds in doxorubicin toxicity protection assay. […] Cell viability was determined by Cell Titer Glo assay kit.
Cell survival assay was performed in 96-well plates using CellTiter-Glo Luminescent Cell Viability Assay kit (Promega) that measures cellular ATP content. The CellTiter-Glo reagent was diluted by adding 2 volumes of PBS containing 1% Triton X-100. 50 μl of diluted reagent was directly added to 100 μl of cell culture medium per well. Plates were incubated at room temperature for 10 minutes. Luminescence was recorded by Tecan […]luor Plus reader (Tecan). Cell survival was presented as the percentage of viable cells compared with untreated control, and mean±SD was calculated from duplicates. The dox:tox assay of P7C3 analogs was carried out in the HTS Core (University of Texas Southwestern Medical Center) using the EnVison multimode plate reader (Perkin Elmer).

[2] = test system: nicotinamide salvage pathway in U2OS cells; assay: nicotinamide flux analysis with 14C-labeled nicotinamide (TLC); assay type: cell-based; details: 0.5 μM doxorubicin 48 h, then 6 h 14C-nicotinamide
Description: FIGS. 6A-6B. P7C3-A20 enhances the flux of nicotinamide through the salvage pathway. (FIG. 6A) Cells were pre-treated with 0.5 μM doxorubicin for 48 hours, followed by 6 hours treatment with ^14C-nicotinamide in the presence of the indicated amount of P7C3-A20. Metabolites were extracted and analyzed by thin layer chromatography. (FIG. 6B) Quantification of the relative intensities of NAD and NMN from the thin layer chromatogram.
NAMPT is the rate limiting enzyme in the salvage pathway whereby cells sequentially convert nicotinamide into nicotinamide […] mononucleotide (NMN) and NAD (Preiss and Handler, 1958). If active variants of P7C3 indeed bind to the NAMPT dimer in a manner fostering its activity, then these compounds should enhance the flux of nicotinamide through the salvage pathway. To test this hypothesis, ^14C-labeled nicotinamide was administered to cultured U2OS cells. Six hours later, cells were lysed in perchloric acid and cleared by centrifugation so that soluble materials could be separated by thin layer chromatography (TLC) followed by autoradiography.
Logarithmically growing cells cultured in 6-well plates were treated with doxorubicin (0.5 μM) for 48 hours. […] Afterwards, the screen was scanned using the Typhoon scanner, and the ^14C-labeled compounds were quantified using Image J.

With `COc1cccc(NCC(F)Cn2c3ccc(Br)cc3c3cc(Br)ccc32)c1` (centres unmarked) [S10] the “protection from doxorubicin-mediated toxicity (dox:tox assay)” value [1] was “protect cultured U2OS cells from doxorubicin-mediated toxicity” and the “conversion of radiolabeled nicotinamide into NMN and NAD” value [2] was “enhanced conversion of radiolabeled nicotinamide into NMN and NAD”.
